According to ChEMBL document CHEMBL3991601, “The target landscape of clinical kinase drugs” (Science, 2017):
The source made the active and inactive calls.

Legend:
[1] = target: T1, Ephrin type-B receptor 3 (Homo sapiens, UniProt P54753)
T1 sequence (P54753 whole entry): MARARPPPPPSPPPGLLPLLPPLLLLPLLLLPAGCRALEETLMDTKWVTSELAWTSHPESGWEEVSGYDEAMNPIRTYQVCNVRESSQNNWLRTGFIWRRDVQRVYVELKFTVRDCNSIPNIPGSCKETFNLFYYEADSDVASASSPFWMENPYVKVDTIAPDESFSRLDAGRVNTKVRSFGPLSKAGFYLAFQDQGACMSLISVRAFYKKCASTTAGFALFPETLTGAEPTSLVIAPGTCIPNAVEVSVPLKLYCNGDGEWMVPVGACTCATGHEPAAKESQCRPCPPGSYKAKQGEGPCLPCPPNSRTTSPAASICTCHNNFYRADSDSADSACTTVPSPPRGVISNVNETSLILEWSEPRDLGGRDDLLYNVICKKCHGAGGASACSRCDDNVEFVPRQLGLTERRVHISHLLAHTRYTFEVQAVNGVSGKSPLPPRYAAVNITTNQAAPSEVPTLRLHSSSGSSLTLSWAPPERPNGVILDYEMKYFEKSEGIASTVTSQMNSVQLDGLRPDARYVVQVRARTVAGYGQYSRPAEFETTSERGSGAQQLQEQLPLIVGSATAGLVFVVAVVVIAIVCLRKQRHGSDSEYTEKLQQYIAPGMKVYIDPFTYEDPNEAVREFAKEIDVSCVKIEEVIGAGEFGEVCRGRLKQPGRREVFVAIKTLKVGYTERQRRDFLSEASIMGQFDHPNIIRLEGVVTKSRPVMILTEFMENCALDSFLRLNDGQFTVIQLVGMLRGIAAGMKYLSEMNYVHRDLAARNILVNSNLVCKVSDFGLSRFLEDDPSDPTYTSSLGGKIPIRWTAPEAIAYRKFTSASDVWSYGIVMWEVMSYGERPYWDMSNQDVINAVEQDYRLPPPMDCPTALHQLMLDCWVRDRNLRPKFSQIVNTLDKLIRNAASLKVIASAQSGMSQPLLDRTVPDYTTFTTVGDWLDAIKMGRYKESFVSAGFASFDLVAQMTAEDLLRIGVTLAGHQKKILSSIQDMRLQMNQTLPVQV

[2] = target: T2, Serine/threonine-protein kinase TAO2 (Homo sapiens, UniProt Q9UL54)
T2 sequence (Q9UL54 whole entry): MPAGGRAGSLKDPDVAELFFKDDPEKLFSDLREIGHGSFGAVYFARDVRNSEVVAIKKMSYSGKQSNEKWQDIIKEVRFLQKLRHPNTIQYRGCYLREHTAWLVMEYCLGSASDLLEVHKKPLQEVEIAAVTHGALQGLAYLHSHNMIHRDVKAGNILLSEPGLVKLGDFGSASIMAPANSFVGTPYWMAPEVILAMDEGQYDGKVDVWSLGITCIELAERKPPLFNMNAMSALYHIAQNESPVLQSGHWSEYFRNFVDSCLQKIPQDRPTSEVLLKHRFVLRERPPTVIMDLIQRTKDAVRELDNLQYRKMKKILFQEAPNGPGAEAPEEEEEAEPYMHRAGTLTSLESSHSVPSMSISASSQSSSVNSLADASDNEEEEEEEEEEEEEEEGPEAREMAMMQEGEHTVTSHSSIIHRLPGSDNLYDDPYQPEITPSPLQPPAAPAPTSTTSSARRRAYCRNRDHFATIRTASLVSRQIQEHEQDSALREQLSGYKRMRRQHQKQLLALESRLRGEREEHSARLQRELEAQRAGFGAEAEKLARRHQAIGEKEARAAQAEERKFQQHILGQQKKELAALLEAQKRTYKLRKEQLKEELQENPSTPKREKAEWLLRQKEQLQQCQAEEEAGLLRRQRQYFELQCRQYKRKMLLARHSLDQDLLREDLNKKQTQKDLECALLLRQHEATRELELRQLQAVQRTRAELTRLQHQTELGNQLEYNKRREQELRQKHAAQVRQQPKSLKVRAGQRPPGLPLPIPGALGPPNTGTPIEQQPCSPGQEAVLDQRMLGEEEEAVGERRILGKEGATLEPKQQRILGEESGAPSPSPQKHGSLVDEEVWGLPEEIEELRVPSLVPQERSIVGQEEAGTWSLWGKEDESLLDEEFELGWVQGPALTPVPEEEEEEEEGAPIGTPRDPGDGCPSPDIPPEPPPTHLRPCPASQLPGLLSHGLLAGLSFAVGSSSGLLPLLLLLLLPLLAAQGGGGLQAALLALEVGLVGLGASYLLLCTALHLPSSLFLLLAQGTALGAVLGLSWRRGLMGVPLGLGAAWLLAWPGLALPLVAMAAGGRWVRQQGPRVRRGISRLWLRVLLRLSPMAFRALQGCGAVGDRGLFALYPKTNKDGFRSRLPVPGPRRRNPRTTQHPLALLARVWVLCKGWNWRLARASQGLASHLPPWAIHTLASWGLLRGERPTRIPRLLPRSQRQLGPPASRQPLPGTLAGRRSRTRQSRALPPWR

[3] = target: cAMP-dependent protein kinase type II-alpha regulatory subunit (Homo sapiens, UniProt P13861)
cAMP-dependent protein kinase type II-alpha regulatory subunit, sequence (P13861 whole entry): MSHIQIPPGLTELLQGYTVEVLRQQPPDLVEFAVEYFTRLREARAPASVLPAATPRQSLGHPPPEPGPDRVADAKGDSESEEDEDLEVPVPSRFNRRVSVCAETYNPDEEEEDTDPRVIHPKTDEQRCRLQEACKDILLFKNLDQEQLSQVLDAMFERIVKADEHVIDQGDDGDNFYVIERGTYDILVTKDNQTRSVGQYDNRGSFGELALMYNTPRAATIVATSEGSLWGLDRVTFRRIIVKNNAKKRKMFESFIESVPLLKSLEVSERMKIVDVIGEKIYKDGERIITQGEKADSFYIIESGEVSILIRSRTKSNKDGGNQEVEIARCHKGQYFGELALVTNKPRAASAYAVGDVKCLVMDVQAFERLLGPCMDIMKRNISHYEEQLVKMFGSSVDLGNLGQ

[4] = target: Myosin light chain kinase, smooth muscle (Homo sapiens, UniProt Q15746)
Myosin light chain kinase, smooth muscle, sequence (Q15746 whole entry): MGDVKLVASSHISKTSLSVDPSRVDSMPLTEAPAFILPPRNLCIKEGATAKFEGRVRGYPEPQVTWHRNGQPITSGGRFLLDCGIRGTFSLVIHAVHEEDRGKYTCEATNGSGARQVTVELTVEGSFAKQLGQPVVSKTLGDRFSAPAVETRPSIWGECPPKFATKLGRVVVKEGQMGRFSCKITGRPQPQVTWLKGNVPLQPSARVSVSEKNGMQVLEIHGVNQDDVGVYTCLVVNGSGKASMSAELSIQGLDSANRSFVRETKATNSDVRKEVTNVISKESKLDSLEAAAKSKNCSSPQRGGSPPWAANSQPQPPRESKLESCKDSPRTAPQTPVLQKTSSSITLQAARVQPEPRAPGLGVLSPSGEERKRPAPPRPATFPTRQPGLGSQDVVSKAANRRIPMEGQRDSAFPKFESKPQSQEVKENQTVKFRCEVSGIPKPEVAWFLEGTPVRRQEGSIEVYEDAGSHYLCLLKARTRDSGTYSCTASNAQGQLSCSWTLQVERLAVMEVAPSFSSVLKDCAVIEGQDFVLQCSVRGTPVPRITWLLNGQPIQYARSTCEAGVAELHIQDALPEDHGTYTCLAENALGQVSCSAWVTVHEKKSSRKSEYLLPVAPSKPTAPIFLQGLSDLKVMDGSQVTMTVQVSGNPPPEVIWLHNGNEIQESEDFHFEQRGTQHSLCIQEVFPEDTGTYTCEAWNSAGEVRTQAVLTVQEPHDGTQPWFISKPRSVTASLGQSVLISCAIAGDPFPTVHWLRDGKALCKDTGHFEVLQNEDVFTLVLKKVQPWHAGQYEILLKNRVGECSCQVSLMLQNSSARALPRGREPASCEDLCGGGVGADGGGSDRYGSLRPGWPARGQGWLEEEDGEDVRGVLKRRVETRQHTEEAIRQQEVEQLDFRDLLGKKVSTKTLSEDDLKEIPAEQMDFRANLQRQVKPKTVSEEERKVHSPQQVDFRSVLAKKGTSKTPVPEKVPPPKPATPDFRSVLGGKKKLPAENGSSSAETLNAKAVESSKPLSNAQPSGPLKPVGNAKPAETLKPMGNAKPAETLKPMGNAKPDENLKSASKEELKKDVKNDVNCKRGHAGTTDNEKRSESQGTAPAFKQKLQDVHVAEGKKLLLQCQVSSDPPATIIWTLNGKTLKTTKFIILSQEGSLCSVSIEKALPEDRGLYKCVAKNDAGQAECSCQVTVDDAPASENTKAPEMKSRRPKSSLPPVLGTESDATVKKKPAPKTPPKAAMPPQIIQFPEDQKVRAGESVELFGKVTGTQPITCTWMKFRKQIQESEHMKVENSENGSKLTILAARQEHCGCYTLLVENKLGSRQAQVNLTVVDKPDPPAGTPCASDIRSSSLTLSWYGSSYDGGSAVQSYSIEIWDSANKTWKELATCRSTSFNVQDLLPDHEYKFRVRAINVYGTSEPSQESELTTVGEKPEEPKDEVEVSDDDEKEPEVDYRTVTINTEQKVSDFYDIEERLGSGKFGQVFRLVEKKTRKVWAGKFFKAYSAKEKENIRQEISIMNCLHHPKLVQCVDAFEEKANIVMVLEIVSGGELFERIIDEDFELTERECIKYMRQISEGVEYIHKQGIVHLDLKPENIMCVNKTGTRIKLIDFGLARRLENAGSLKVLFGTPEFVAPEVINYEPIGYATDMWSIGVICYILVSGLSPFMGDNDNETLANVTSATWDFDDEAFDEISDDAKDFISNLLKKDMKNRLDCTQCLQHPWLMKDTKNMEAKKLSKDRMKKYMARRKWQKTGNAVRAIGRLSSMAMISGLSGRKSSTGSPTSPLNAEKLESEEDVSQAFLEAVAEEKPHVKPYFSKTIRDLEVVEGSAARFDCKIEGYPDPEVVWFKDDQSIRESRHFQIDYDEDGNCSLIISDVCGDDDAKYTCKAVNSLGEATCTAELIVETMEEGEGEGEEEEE

[5] = target: Tyrosine-protein kinase BTK (Homo sapiens, UniProt Q06187)
Tyrosine-protein kinase BTK, sequence (Q06187 whole entry): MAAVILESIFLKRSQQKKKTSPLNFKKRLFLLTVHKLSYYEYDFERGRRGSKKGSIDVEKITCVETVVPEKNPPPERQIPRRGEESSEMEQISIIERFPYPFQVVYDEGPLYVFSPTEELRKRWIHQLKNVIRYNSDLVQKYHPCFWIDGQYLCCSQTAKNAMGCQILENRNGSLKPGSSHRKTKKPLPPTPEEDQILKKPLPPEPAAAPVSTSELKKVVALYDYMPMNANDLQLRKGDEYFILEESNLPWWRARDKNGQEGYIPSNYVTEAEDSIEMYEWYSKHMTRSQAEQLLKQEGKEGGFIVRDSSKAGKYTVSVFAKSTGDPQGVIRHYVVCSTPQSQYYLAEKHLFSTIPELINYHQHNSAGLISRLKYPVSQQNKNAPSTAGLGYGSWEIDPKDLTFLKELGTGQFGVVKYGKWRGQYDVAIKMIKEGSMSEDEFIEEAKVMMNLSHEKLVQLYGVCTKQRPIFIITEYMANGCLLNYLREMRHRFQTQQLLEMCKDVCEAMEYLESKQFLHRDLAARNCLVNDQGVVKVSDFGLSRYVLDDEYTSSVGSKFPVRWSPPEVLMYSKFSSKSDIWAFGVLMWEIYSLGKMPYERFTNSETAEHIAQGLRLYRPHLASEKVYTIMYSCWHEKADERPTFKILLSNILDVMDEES

[6] = target: T3, Serine/threonine-protein kinase Nek2 (Homo sapiens, UniProt P51955)
T3 sequence (P51955 whole entry): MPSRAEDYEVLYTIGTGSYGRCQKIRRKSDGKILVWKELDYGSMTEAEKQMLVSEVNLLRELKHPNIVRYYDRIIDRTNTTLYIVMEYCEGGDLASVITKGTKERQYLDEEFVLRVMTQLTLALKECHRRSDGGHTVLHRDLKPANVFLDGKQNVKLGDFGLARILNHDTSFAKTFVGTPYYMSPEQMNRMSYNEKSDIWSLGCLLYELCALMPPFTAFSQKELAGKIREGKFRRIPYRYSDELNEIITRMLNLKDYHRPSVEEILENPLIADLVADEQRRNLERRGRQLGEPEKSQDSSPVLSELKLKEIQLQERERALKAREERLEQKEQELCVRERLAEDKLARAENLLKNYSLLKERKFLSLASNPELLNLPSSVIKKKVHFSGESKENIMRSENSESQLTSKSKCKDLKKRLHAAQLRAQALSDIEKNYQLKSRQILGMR
Note: in the data inactive means no Kd found up to 30 µM.

Row | Structure (SMILES) | Kd [1] | Kd [2] | Kd [3] | Kd [4] | Kd [5] | Kd [6]
1 | CCN(CCCOc1ccc2c(Nc3cc(CC(=O)Nc4cccc(F)c4)n[nH]3)ncnc2c1)CCOP(=O)(O)O [BARASERTIB] | > 30 µM (inactive) | > 30 µM (inactive) | > 30 µM (inactive) | > 30 µM (inactive) |  | 
2 | COc1cc(Nc2ncc(F)c(Nc3ccc4c(n3)N(COP(=O)(O)O)C(=O)C(C)(C)O4)n2)cc(OC)c1OC [FOSTAMATINIB] | > 30 µM (inactive) | > 30 µM (inactive) | > 30 µM (inactive) | > 30 µM (inactive) | > 30 µM (inactive) | > 30 µM (inactive)
3 | COc1cc2c(Oc3ccc4[nH]c(C)cc4c3F)ncnc2cc1OCCCN1CCCC1 [CEDIRANIB] |  |  | > 30 µM (inactive) |  |  | 
4 | COc1ccc(-c2ccc3ncc4c(c3c2)n(-c2ccc(N3CCNCC3)c(C(F)(F)F)c2)c(=O)n4C)cn1 [BGT-226 FREE BASE] | > 30 µM (inactive) | > 30 µM (inactive) | > 30 µM (inactive) | > 30 µM (inactive) | > 30 µM (inactive) | > 30 µM (inactive)
5 | S=C(NCc1ccc2c(c1)OCO2)N1CCN(c2ncnc3c2oc2ccccc23)CC1 [AMUVATINIB] | > 30 µM (inactive) | > 30 µM (inactive) | > 30 µM (inactive) | > 30 µM (inactive) | > 30 µM (inactive) | > 30 µM (inactive)
6 | Cc1cc(Nc2nc(N[C@@H](C)c3ncc(F)cn3)ncc2Cl)n[nH]1 [AZD-1480] | > 30 µM (inactive) | > 30 µM (inactive) | > 30 µM (inactive) | > 30 µM (inactive) | > 30 µM (inactive) | > 30 µM (inactive)
7 | CC(C)CC(=O)Nc1[nH]nc2c1CN(C(=O)C1CCN(C)CC1)C2(C)C [PHA-793887] | > 30 µM (inactive) | > 30 µM (inactive) | > 30 µM (inactive) | > 30 µM (inactive) | > 30 µM (inactive) | 
8 | CC[C@@](C)(Nc1ccnc(-c2c[nH]c3ncccc23)n1)C(=O)NCC(F)(F)F [DECERNOTINIB] | > 30 µM (inactive) | > 30 µM (inactive) |  | > 30 µM (inactive) | > 30 µM (inactive) | > 30 µM (inactive)
9 | C=CCn1c(=O)c2cnc(Nc3ccc(N4CCN(C)CC4)cc3)nc2n1-c1cccc(C(C)(C)O)n1 [ADAVOSERTIB] | > 30 µM (inactive) | > 30 µM (inactive) | > 30 µM (inactive) | > 30 µM (inactive) |  | 
10 | C[C@]1(O)C[C@@H](c2nc(-c3ccc4ccc(-c5ccccc5)nc4c3)c3c(N)nccn32)C1 [LINSITINIB] | > 30 µM (inactive) |  | > 30 µM (inactive) | > 30 µM (inactive) |  | 
11 | O=S(=O)(c1cccc2cnccc12)N1CCCNCC1 [FASUDIL] | > 30 µM (inactive) | > 30 µM (inactive) | > 30 µM (inactive) | > 30 µM (inactive) |  | 
12 | CN(c1ncccc1CNc1nc(Nc2ccc3c(c2)CC(=O)N3)ncc1C(F)(F)F)S(C)(=O)=O [PF-00562271] | > 30 µM (inactive) | > 30 µM (inactive) | > 30 µM (inactive) | > 30 µM (inactive) |  | 
13 | COc1cccc(Nc2ncnn3ccc(CN4CC[C@@H](N)[C@H](O)C4)c23)c1 [BMS-690514] |  | > 30 µM (inactive) | > 30 µM (inactive) | > 30 µM (inactive) | > 30 µM (inactive) | > 30 µM (inactive)
14 | CCOc1ccn(-c2ccc(F)cc2)c(=O)c1C(=O)Nc1ccc(Oc2ccnc(N)c2Cl)c(F)c1 [BMS-777607] | > 30 µM (inactive) | > 30 µM (inactive) | > 30 µM (inactive) | > 30 µM (inactive) |  | > 30 µM (inactive)
15 | Cn1c(=O)n(-c2ccc(C(C)(C)C#N)cc2)c2c3cc(-c4cnc5ccccc5c4)ccc3ncc21 [DACTOLISIB] | > 30 µM (inactive) | > 30 µM (inactive) | > 30 µM (inactive) | > 30 µM (inactive) |  | 
16 | CN(C)C/C=C/C(=O)Nc1cc2c(Nc3ccc(F)c(Cl)c3)ncnc2cc1O[C@H]1CCOC1 [AFATINIB] |  |  | > 30 µM (inactive) |  |  | 

Second part, the compound after the results:

Row | Kd [1] | Kd [2] | Kd [3] | Kd [4] | Kd [5] | Kd [6] | Structure (SMILES)
17 | > 30 µM (inactive) | > 30 µM (inactive) | > 30 µM (inactive) | > 30 µM (inactive) | > 30 µM (inactive) | > 30 µM (inactive) | O=C(NC[C@H](O)CO)c1ccncc1Nc1ccc(I)cc1F [PIMASERTIB]
18 | > 30 µM (inactive) | > 30 µM (inactive) | > 30 µM (inactive) | > 30 µM (inactive) | > 30 µM (inactive) | > 30 µM (inactive) | O=C(Nc1ccc(OC(F)(F)F)cc1)c1sccc1NCc1ccnc2ccccc12 [OSI-930]
19 | > 30 µM (inactive) | > 30 µM (inactive) | > 30 µM (inactive) | > 30 µM (inactive) | > 30 µM (inactive) | > 30 µM (inactive) | O=C(NOC[C@H](O)CO)c1ccc(F)c(F)c1Nc1ccc(I)cc1F [MIRDAMETINIB]
20 | > 30 µM (inactive) | > 30 µM (inactive) | > 30 µM (inactive) | > 30 µM (inactive) | > 30 µM (inactive) | > 30 µM (inactive) | CNC(=O)c1cc(COc2nnc(Nc3ccc(Cl)cc3)c3ccoc23)ccn1 [TELATINIB]
21 |  |  | > 30 µM (inactive) |  |  |  | COc1cc2c(N3CCN(C(=O)Nc4ccc(OC(C)C)cc4)CC3)ncnc2cc1OCCCN1CCCCC1 [TANDUTINIB]
22 | > 30 µM (inactive) | > 30 µM (inactive) | > 30 µM (inactive) | > 30 µM (inactive) | > 30 µM (inactive) | > 30 µM (inactive) | FC(F)(F)c1ccc(CNc2ccc(Cc3c[nH]c4ncc(Cl)cc34)cn2)cn1 [PEXIDARTINIB]
23 | > 30 µM (inactive) | > 30 µM (inactive) |  | > 30 µM (inactive) | 0.547 µM (active) | > 30 µM (inactive) | C=CC(=O)Nc1cccc(Nc2nc(Nc3ccc(N4CCN(C(C)=O)CC4)cc3OC)ncc2C(F)(F)F)c1 [ROCILETINIB]
24 |  |  | > 30 µM (inactive) |  |  |  | CC1(C)CNc2cc(NC(=O)c3cccnc3NCc3ccncc3)ccc21 [MOTESANIB]
25 |  |  | > 30 µM (inactive) |  |  |  | Cn1cnc2c(F)c(Nc3ccc(Br)cc3Cl)c(C(=O)NOCCO)cc21 [SELUMETINIB]
